Measurements as given in publication PMC1660542, “Structure-based discovery of inhibitors of the YycG histidine kinase: New chemical leads to combat Staphylococcus epidermidis infections” (BMC Microbiology, 2006).
Converted amounts (≈) assume the structure as drawn. Where two headings read alike, the source gives them in different places.

Tests used:
[1] = tested on: S. epidermidis ATCC12228; test: MIC assay (broth dilution in tubes, CLSI); assay type: cell-based, Staphylococcus epidermidis; settings: for MIC: Staphylococcus epidermidis
Description: (§1) Staphylococcus epidermidis ATCC12228 and RP62A strains were purchased from the American Type Culture Collection (ATCC, Manassas, USA). Staphylococcus aureus ATCC29213, Escherichia coli ATCC25922 and Pseudomonas aeruginosa ATCC27853 were kindly provided by Dr. Bijie Hu at Zhongshan Hospital (Shanghai, China). S. epidermidis strains se527, se886, se847, seG203, Streptococcus pyogenes strain 144, and Streptococcus mutans strain 128 were all clinical isolates from Zhongshan Hospital and Huashan Hospital (Shanghai, China). If not stated otherwise, S. epidermidis and S. aureus strains were grown at 37°C in tryptic soy broth (TSB, Oxoid) containing 0.25% glucose, E. coli and P. aeruginosa strains were grown at 37°C in Luria-Bertani (LB, Oxoid).
(§2) MIC assays for the antibacterial activities of the compounds were performed according to the broth micro-dilution (in tubes) method of the Clinical and Laboratory Standards Institute (CLSI) of America. The Minimal Bactericidal Concentration (MBC) was obtained by subculturing 100 μl from each negative (no visible bacterial growth) tube from the MIC assay, onto substance-free Mueller-Hinton agar plates. The plates were incubated at 37°C for 24 hours, and the MBC was defined as the lowest concentration of substance which produced subcultures growing no more than five colonies on each plate.

[2] = tested on: S. aureus ATCC29213; test: MIC assay (broth dilution in tubes, CLSI); assay type: cell-based, Staphylococcus aureus; settings: Staphylococcus aureus; S. aureus ATCC29213; read-out: Minimal inhibitory concentration (MIC)
Description: as §1, §2

[3] = tested on: S. mutans 128; test: MIC assay (broth dilution in tubes, CLSI); assay type: cell-based, Streptococcus mutans; settings: Streptococcus mutans; S. mutans 128; read-out: Minimal inhibitory concentration (MIC)
Description: as §1, §2

[4] = tested on: S. epidermidis RP62A; test: MIC assay (broth dilution in tubes, CLSI); assay type: cell-based; settings: Staphylococcus epidermidis; S. epidermidis RP62A (biofilm-forming strain); read-out: Minimal inhibitory concentration (MIC)
Description: as §1, §2

[5] = target: T1, YycG' protein (Staphylococcus epidermidis, UniProt Q8CU87); test: Compound-YycG' protein binding assay (SPR, Biacore 3000); settings: SPR sensorgram shape
T1 construct: of YycG (370aa to 610aa) was amplified by PCR; His-tag (pET28a) (N); made in house; host or cells: E. coli BL21 (pET28a, pETYycG')
Description: The YycG' fragment containing the cytoplasmic signal domains (the HATPase_c and HisKA domain, see Figure 1A) of YycG (370aa to 610aa) was amplified by PCR (with the chromosomal DNA of S. epidermidis ATCC12228 as the template, and (5' […] 3') and (5' […] 3') as the primers. Subsequently, the fragment was digested with BamHI and XholI (TAKARA, Japan) and ligated into the corresponding sites of pET28a (Promega, Madison, USA) to obtain pETYycG'. The expressed YycG' protein was purified with the ProBond™ Purification System (Invitrogen, California, USA), according to the manufacturer's protocol.
The in vitro binding affinities of the inhibitor compounds to the YycG' protein was determined using surface plasmon resonance (SPR) biosensor technology on the dual flow cell Biacore 3000 instrument (Biacore AB, Uppsala, Sweden) with a similar method as described in our previous study. Immobilization of the YycG' protein to the hydrophilic carboxymethylated dextran matrix of the sensor chip CM5 (Biacore) was carried out by the standard primary amine coupling reaction. […] The equilibrium constants (KD) evaluating the protein-ligand binding affinity were determined by the steady state or the kinetic state affinity fitting model encoded in the Biacore analysis software.

[6] = tested on: SrrB'; test: Inhibition of SrrB' autophosphorylation (Kinase-Glo); assay type: biochemical, S. epidermidis; settings: compound 50 μM, 4 μg protein, 3 μM ATP
[7] = Erythrocyte hemolysis assay; assay type: cell-based, human; settings: human, erythrocytes (5% suspension), 1 hour, 37°C
Method: Cytotoxicity of the antibacterial compounds on cultured Vero cell was measured by using the Cell Proliferation Kit I (MTT) (Roche, Indianapolis, USA) according to the manufacturer's protocol. Addition of DMSO (1%) in the medium produced a slight cytotoxicity on Vero cell, which could easily be corrected for. Each assay was performed in quadruplicate and repeated three times. The results were converted to percentage of the control (cells only treated with 1% DMSO) and CC50 (concentrations that produce a 50% cytotoxicity effect on Vero cell) was calculated by the Origin v7.0 software (OriginLab, Northampton, USA). Hemolytic activities of the compounds were determined by using healthy human erythrocytes. The erythrocytes were washed three times in sterile saline and resuspended to 5% prior to the assay. […] Cells without compound treatment and cells with 1% Triton-100 treatment were used as 0% and 100% hemolysis controls, respectively. The cell suspensions were incubated for 1 hour at 37°C and centrifuged at 1000×g for 10 min. Volumes of 100 μl supernatants were transferred to another sterile plate and hemoglobin release from the cells was determined at 570 nm. […] The hemolysis assays were repeated twice.

T1 sequence (Q8CU87 370-610): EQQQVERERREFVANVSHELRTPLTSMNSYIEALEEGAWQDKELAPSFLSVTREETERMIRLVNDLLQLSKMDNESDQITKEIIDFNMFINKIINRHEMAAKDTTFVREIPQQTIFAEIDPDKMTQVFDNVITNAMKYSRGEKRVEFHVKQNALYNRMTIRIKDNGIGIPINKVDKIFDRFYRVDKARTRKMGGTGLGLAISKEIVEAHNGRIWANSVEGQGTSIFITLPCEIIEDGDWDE

In the case of `Cc1ccc(NC(=O)CN2C(=O)S/C(=C\c3ccc(OCc4cccc(C(O)O)c4)cc3)C2=O)cc1` [Compound 7], the “Antibacterial effectiveness” value ([1]; ATCC12228 versus RP62A) is reported as “only effective against the non-biofilm-forming strain ATCC12228”, the MIC ([1]; ATCC12228, Table 2, as tested on S. epidermidis ATCC 12228, read-out: MICs) is reported as 0.2 µM (≈ 0.101 µg/mL) and the MIC ([1]; S. epidermidis ATCC12228 (non-biofilm-forming strain), read-out: Minimal inhibitory concentration (MIC)) is reported as 0.2 µM (≈ 0.101 µg/mL). The MIC [2] was over 200 µM, the MIC [3] was over 200 µM and the MIC [4] was over 200 µM. For the same molecule, the “Association/dissociation pattern in SPR” value [5] was “slow association and slow dissociation”, the “Inhibition of SrrB' phosphorylation” value [6] was 2% and the hemolysis at 1 h ([7]; at 4 × MIC (number in parenthesis)) was under 0.1%. It also gave a hemolysis at 1 h ([7]; at MIC for S. epidermidis ATCC12228) of under 0.1%.
